Measurements published in patent US20230285405A1, “Pharmaceuticals for Treating or Preventing Nidoviruses and Picornaviruses” (priority 2020, published 2023).
Counter-ions that a name gives are not always drawn. Like-named read-outs stand apart in the source and are kept apart here.

How the values were obtained:
[1] = test system: OC43; assay: Drug screening: OC43 nucleoprotein staining in infected A549-mRuby cells; format: cell-based, human beta coronavirus OC43; details: for activity at 10 µM: Betacoronavirus 1, OC43, 96 h
In short: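 Repurposing screen: drugs at 10 μM final added 1 h after OC43 infection (MOI 0.3) of H2B-mRuby A549 cells, 4-day incubation at 33° C. Cell counts imaged at day 0 and day 4; nucleoprotein staining per cell normalized to untreated infected wells, hit threshold >3 SD in duplicate screens, non-toxic.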

[2] = test system: A549-mRuby cells; assay: Drug screening: effect on cell growth (cell number day 4 / day 0); details: 10 μM drug; for Growth_1: number of cells at day 4 divided by number of cells at day 0 / toxic_1: repeat #1; for Growth_2: number of cells at day 4 divided by number of cells at day 0 / toxic_2: repeat #2
In short: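 Growth was scored as day 4/day 0 cell count from images of OC43-infected (MOI 0.3) A549-mRuby nuclear-reporter cells. Compounds were added at 10 μM final after a 1 h infection at 33° C, followed by 4 days of culture at 33° C in two independent screens.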

[3] = 10 μM drug, MOI 0.3, 4 days, OC43 staining normalized to no-drug controls, mean of the two screen repeats, read-out: OC43_mean
[4] = 10 μM drug, MOI 0.3, 4 days, normalized to no-drug controls in the same plate, repeat #1, read-out: OC43_1: % staining of OC43 in screen repeat #1
[5] = 10 μM drug, MOI 0.3, 4 days, normalized to no-drug controls in the same plate, repeat #2, read-out: OC43_2: % staining of OC43 in screen repeat #2

SMILES	hit_1 ([1]; 10 μM drug, repeat #1)	hit_2 ([1]; 10 μM drug, repeat #2)	activity at 10 µM [1, 3]	activity at 10 µM [1, 4]	activity at 10 µM [1, 5]	Growth_1: number of cells at day 4 divided by number of cells at day 0 [2]	toxic_1 [2]	Growth_2: number of cells at day 4 divided by number of cells at day 0 [2]	toxic_2 [2]	OC43_mean ([1]; 10 μM drug, MOI 0.3, 4 days, OC43 staining normalized to no-drug controls, mean of the two screen repeats)	OC43_1: % staining of OC43 in screen repeat #1 ([1]; 10 μM drug, MOI 0.3, 4 days, normalized to no-drug controls in the same plate, repeat #1)	OC43_2: % staining of OC43 in screen repeat #2 ([1]; 10 μM drug, MOI 0.3, 4 days, normalized to no-drug controls in the same plate, repeat #2)	activity at 10 µM ([1]; read-out: OC43_mean)	activity at 10 µM ([1]; read-out: OC43_mean, 10 μM drug, MOI 0.3, 4 days, OC43 staining normalized to no-drug controls, mean of the two screen repeats)	hit_1 [1]	hit_2 [1]	activity at 10 µM ([1]; read-out: OC43_1: % staining of OC43 in screen repeat #1)	activity at 10 µM ([1]; read-out: OC43_2: % staining of OC43 in screen repeat #2)
CN1CCCCC1CCN1c2ccccc2Sc2ccc([S+](C)[O-])cc21 (stereo not drawn) [Mesoridazine Besylate]	1	1	20.3%	15.6%	25%	4.7	0	4.7	0	–	–	–	–	–	–	–	–	–
C[C@@H]1[C@H](O)[C@@H](C)/C=C/C=C/CC/C=C/C=C/C=C/C=C/C(O[C@H]2O[C@H](C)[C@@H](O)[C@H](N)[C@@H]2O)CC2O[C@](O)(CC(O)C(O)CCC(O)CC(O)CC(O)CC(=O)O[C@H]1C)CC(O)C2C(=O)O (stereo partly drawn) [Nystatin (Fungicidin), Nystatin]	1	1	–	–	–	4.6	0	5.9	0	23.3%	27.8%	18.8%	–	–	–	–	–	–
Cc1ccccc1C(OCCN(C)C)c1ccccc1 (stereo not drawn) [Orphenadrine Hydrochloride]	1	1	37.6%	11.7%	63.6%	4.6	0	5.1	0	–	–	–	–	–	–	–	–	–
OCCN1CCN(CCCN2c3ccccc3Sc3ccc(Cl)cc32)CC1 [Perphenazine]	1	1	42.8%	59.8%	25.8%	2.2	0	2.5	0	–	–	–	–	–	–	–	–	–
CN1CCN(CCCN2c3ccccc3Sc3ccc(Cl)cc32)CC1 [Prochlorperazine Dimaleate]	1	1	22.6%	20.2%	25%	3.1	0	3.0	0	–	–	–	–	–	–	–	–	–
CN(C)CCCN1c2ccccc2Sc2ccccc21 [Promazine hydrochloride]	1	1	23%	23.4%	22.6%	4.7	0	4.7	0	–	–	–	–	–	–	–	–	–
CC(CN1c2ccccc2Sc2ccccc21)N(C)C (stereo not drawn) [Promethazine HCl]	1	1	24.4%	19.4%	29.5%	3.0	0	2.4	0	–	–	–	–	–	–	–	–	–
CCCOC(C(=O)OC1CCN(C)CC1)(c1ccccc1)c1ccccc1 [Propiverine hydrochloride]	1	1	27.3%	29.5%	25.2%	3.0	0	2.2	0	–	–	–	–	–	–	–	–	–
CC(C)NCC(O)COc1cccc2ccccc12 (stereo not drawn) [Propranolol HCl]	1	1	–	21.6%	27.7%	5.6	0	4.1	0	–	–	–	24.7%	–	–	–	–	–
CCCc1cc(=O)[nH]c(=S)[nH]1 [Propylthiouracil]	1	1	–	44.3%	55.1%	3.7	0	4.2	0	–	–	–	–	49.7%	–	–	–	–
OCCOCCN1CCN(C2=Nc3ccccc3Sc3ccccc32)CC1 [Quetiapine Fumarate]	–	–	–	–	–	3.6	0	3.7	0	–	–	–	48%	–	1	1	34.5%	61.5%
CO[C@H]1/C=C/O[C@@]2(C)Oc3c(C)c(O)c4c(c3C2=O)C2=NC3(CCN(CC(C)C)CC3)NC2=C(NC(=O)/C(C)=C\C=C\[C@H](C)[C@H](O)[C@@H](C)[C@@H](O)[C@@H](C)[C@H](OC(C)=O)[C@@H]1C)C4=O [Rifabutin]	1	1	41.1%	25.8%	56.4%	5.5	0	5.3	0	–	–	–	–	–	–	–	–	–
CC(N)C12CC3CC(CC(C3)C1)C2 (stereo not drawn) [Rimantadine Hydrochloride]	1	1	52.6%	50.6%	54.6%	4.4	0	5.1	0	–	–	–	–	–	–	–	–	–
CC[C@H]1OC(=O)[C@H](C)[C@@H](O[C@H]2C[C@@](C)(OC)[C@@H](O)[C@H](C)O2)[C@H](C)[C@@H](O[C@@H]2O[C@H](C)C[C@H](N(C)C)[C@H]2O)[C@](C)(O)C[C@@H](C)/C(=N\OCOCCOC)[C@H](C)[C@@H](O)[C@]1(C)O [Roxithromycin]	1	1	41.4%	55.8%	27.1%	5.2	0	5.6	0	–	–	–	–	–	–	–	–	–
OCc1cc(C(O)CNCCCCCCOCCCCc2ccccc2)ccc1O (stereo not drawn) [Salmeterol Xinafoate]	1	1	–	39.3%	20.4%	2.9	0	2.5	0	–	–	–	29.9%	–	–	–	–	–
